Measured values reported in PMC4555179, “Molecular insights into Zeaxanthin-dependent quenching in higher plants” (Scientific Reports, 2015).

How the values were obtained:
[1] = target: T1, CP24 (CP24-his tag) (Arabidopsis thaliana, UniProt Q9LMQ2); test: co-purified pigment, HPLC and absorption fit of acetone extract; format: binding; conditions: complex from control plants; endogenous pigment
T1 construct: gene LHCB6; mature thylakoid protein (transit peptide removed in vivo), C-terminal His tag kept; purified from plant thylakoids by sucrose gradient (Band 2) and Ni column; monomer
T1 sequence (Q9LMQ2 50-258): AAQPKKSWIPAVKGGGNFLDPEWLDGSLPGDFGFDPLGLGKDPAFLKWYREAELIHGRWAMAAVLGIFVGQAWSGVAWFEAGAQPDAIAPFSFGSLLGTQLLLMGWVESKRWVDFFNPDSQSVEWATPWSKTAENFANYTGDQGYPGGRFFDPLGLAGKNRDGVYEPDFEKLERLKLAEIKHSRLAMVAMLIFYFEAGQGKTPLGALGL

[2] = target: T1, CP24 (CP24-his tag); test: as above; format: binding; conditions: complex from light-stressed plants (30 min high light), pH 5.5, 4 °C; endogenous pigment; peripheral, not in internal L1/L2 sites
From the text: co-purified pigment, HPLC and absorption fit of acetone extract on CP24 (CP24-his tag)

| Compound | V [1] | Z [2] |
| --- | --- | --- |
| CC1=C[C@H](O)CC(C)(C)[C@H]1/C=C/C(C)=C/C=C/C(C)=C/C=C/C=C(C)/C=C/C=C(C)/C=C/C1=C(C)C[C@@H](O)CC1(C)C [L, lutein] | 0.89 ± 0.02 mol per monomer (normalised to 10 Chl) | – |
| CC(/C=C/C=C(C)/C=C/[C@@]12O[C@]1(C)C[C@@H](O)CC2(C)C)=C\C=C\C=C(C)\C=C\C=C(C)\C=C\[C@@]12O[C@]1(C)C[C@@H](O)CC2(C)C [V, violaxanthin] | 0.89 ± 0.02 mol per monomer (normalised to 10 Chl) | – |
| CC1=C(/C=C/C(C)=C/C=C/C(C)=C/C=C/C=C(C)/C=C/C=C(C)/C=C/C2=C(C)C[C@@H](O)CC2(C)C)C(C)(C)C[C@H](O)C1 [Z, zeaxanthin] | – | 0.20 ± 0.00 mol per monomer (normalised to 10 Chl) |
